Test results: patent publication US12629382B2, “Therapy” (Vestlandets Innovasjonsselskap AS, priority 2019, dated 2026)

Key:
[1] = molecular target: T1, xCT antiport (Homo sapiens, UniProt Q9UPY5); settings: reported in the literature; cited from earlier work
T1 sequence (Q9UPY5 1-501): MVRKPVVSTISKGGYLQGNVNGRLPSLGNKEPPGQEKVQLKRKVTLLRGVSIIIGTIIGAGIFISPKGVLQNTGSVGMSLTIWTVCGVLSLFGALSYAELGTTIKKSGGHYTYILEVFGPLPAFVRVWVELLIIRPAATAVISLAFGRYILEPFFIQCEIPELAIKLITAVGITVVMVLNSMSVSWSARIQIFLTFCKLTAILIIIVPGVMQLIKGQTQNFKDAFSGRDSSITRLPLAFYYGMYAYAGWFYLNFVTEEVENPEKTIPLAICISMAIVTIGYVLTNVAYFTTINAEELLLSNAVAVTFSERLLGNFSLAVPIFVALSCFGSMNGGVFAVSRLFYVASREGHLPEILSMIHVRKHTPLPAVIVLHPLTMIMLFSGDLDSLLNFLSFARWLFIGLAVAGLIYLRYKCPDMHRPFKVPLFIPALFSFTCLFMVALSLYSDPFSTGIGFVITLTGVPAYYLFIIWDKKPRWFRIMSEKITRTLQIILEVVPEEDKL
T1 sequence (P08195 1-529 partner): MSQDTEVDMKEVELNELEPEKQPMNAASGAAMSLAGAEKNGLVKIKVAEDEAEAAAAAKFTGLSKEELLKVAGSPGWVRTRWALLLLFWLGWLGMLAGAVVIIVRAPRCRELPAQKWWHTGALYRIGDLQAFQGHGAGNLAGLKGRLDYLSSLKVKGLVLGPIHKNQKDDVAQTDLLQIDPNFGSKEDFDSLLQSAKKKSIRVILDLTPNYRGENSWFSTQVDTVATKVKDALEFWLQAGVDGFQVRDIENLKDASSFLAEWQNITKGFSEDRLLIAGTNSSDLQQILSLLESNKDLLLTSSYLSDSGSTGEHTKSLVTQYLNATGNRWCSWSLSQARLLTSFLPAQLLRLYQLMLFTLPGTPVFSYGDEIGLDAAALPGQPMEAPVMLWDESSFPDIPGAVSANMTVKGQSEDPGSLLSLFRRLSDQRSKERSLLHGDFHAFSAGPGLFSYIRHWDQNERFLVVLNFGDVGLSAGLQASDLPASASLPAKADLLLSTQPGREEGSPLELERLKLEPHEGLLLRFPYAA

[2] = system: U87; experiment: Intracellular GSH, GSH-Glo assay, U87 cells; type: cell-based; settings: Homo sapiens, U-87 MG, 48 h, normalized to untreated control; for activity at 250 µM: 250 μM compound, read-out: Intracellular GSH level U87 250 μM; for activity at 500 µM: 500 μM compound, read-out: Intracellular GSH level U87 500 μM
Procedure: (§1) The cancer cell lines A172, A375, U87 and MCF7 were purchased from American Type Culture Collection (ATCC; Manassas, Va., USA). Cells were cultured in Dulbecco's Modified Eagle's Medium (DMEM) supplemented with 10% fetal bovine serum, 2% v/v L-glutamine, 3.2% v/v non-essential amino acids, antibiotics 2% v/v (penicillin-streptomycin), and 0.02% v/v Plasmocin at 37° C. and 5% CO2.
(§2) xCT expression of cancer cell lines was evaluated by western blotting from protein samples of cell lysates as described in Sleire et al., Oncogene 34: 5951-5959, 2015. Protein concentrations were determined by BCA assay (Thermo Fisher Scientific, USA) followed by SDS PAGE and immunoblotting using rabbit anti-xCT (Thermo Fisher Scientific) and rabbit anti-GAPDH (Abcam, Cambridge, UK) as a loading control. The compounds were dissolved in dimethylsulfoxide (DMSO) (Sigma Aldrich, Germany) and stock concentrations of 100 mM were stored at −20° C. in aliquots. Final concentrations were made in growth medium before adding to the cell monolayers.
(§3) The compounds were evaluated based on the measurement of intracellular Glutathione (GSH) which was performed by the GSH-Glo assay (Promega, Madison, WI, USA, cat #V6912) according to the manufacturer's recommended procedures. 5000 cells per well were seeded in a flat bottomed 96-well plate. After attachment to the well surface, cells were exposed to 250 μM and 500 μM of each compound for 48 h. After that, GSH-Glo reagent was added followed by short incubation and addition of luciferin detection reagent. Bioluminescence was measured using a luminometer (Victor 3 1420 multi-label counter, Perkins Elmer, Waltham, MA, USA). IC50 doses for the compounds SAS, DC10 and DC14 were determined in A172 glioma cells, using the GraphPad Prism v6 software (GraphPad Software, Inc. CA, USA). All measurements were normalized to the untreated control and were performed three times.

[3] = system: A172 glioma cells; experiment: Intracellular GSH, GSH-Glo assay, A172 cells; type: cell-based; settings: Homo sapiens, 48 h, normalized to untreated control; for activity at 250 µM: A 172, 250 μM compound, read-out: Intracellular GSH level A172 250 μM; for activity at 500 µM: A 172, 500 μM compound, read-out: Intracellular GSH level A172 500 μM
Procedure: as §1, §2, §3

[4] = system: A375; experiment: Intracellular GSH, GSH-Glo assay, A375 cells; type: cell-based; settings: Homo sapiens, 48 h, normalized to untreated control; for activity at 250 µM: A-375, 250 μM compound, read-out: Intracellular GSH level A375 250 μM; for activity at 500 µM: A-375, 500 μM compound, read-out: Intracellular GSH level A375 500 μM
Procedure: as §1, §2, §3

[5] = system: MCF7; experiment: Intracellular GSH, GSH-Glo assay, MCF7 cells; type: cell-based; settings: Homo sapiens, 48 h, normalized to untreated control; for activity at 250 µM: 250 μM compound, read-out: Intracellular GSH level MCF7 250 μM; for activity at 500 µM: 500 μM compound, read-out: Intracellular GSH level MCF7 500 μM
Procedure: as §1, §2, §3

[6] = system: A375 melanoma cells; experiment: Validation of DC10 as a radiosensitizer in vivo, subcutaneous A375 tumours; set-up: species or system NOD/Scid mice; settings: DC10+RT: 8 mg DC10 on day 14, 4 Gy radiation at day 15, compared with control, DC10 alone
Source text: (§4) Experiments were approved by the Norwegian Animal Research Authority (Oslo, Norway) in accordance with the Guide for the Care and Use of Laboratory Animals (Institute for Laboratory Animal Research, National Research Council. Washington, D.C.: National Academy Press, 1996). NOD/Scid mice were kept at the animal facility at Department of Biomedicine at the University of Bergen. The animals were provided a standard pellet diet and tap water ad libitum. They were kept in a pathogen free environment at a constant temperature and humidity, and standard 12/12 h light and dark cycle.
In this study 20 NOD/Scid mice were grafted with A375 melanoma cells. The A375 cell line was maintained in incubators at 37° C. and 5% CO2 prior to use in the animal experiment. A375 was cultured in DMEM (Sigma-Aldrich, St-Louis, MO, USA) with the supplement of 10% fetal bovine serum (FBS), 3.2% non-essential amino acids, 100 units/mL Penicillin/Streptomycin, […] L-glutamine (all Lonza, Cologne, Germany). Cells were passaged in vitro in medium sized 75 cm^2 culture flasks. […]
For induction of subcutaneous tumours, 5×10^5 A375 cells were injected in the right flank of 20 NOD/SCID mice, and the animals were randomly assigned to 4 groups with […]. […] Tumour growth data for the treatment groups and different time points were analysed with repeated measures for 2-way Anova analysis.

[7] = Assessment of toxicity associated with DC10 in mice; type: in vivo; settings: 16 mg by oral gavage, NOD/Scid mice, 24 or 48 hours
Source text: as §4
DC10 was dissolved in distilled water and administered as a slurry by oral gavage. 16 mg was administered in a volume of 0.2 ml to each animal. […] Blood was sampled through heart puncture with a 3 ml syringe and 0.75 to 1 ml blood was collected. 250 μl was transferred to EDTA tubes that were tilted 15 times to avoid coagulation. The remaining volumes were transferred to 1.5 ml cryotubes and left to coagulate for 3 minutes before centrifugation at 2200 RCF for 10 minutes. This was followed by transfer of the supernatant to new cryotubes that were kept at −20° C., then thawed immediately prior to analysis at the clinical laboratory at Haukeland University Hospital. Blood collected on EDTA tubes underwent hematological analyses, whereas serum underwent biochemical analyses. Organs were also harvested, fixed on 4% formalin embedded in paraffin, sectioned and stained with hematoxylin and esosin.

Row | Structure (SMILES) | xCT activity [1] | activity at 250 µM [2] | activity at 500 µM [2] | activity at 250 µM [3] | activity at 500 µM [3] | activity at 250 µM [4] | activity at 500 µM [4] | activity at 250 µM [5] | activity at 500 µM [5] | Tumour volume versus the other groups [6] | Clinical inspection [7] | Hematological analysis: hemoglobin, thrombocytes and leukocytes [7] | Histopathological examination of organs [7] | Macroscopic inspection of brain, lungs, heart, intestines, liver, kidneys and spleen [7] | Biochemical blood analysis: S-Kreatinin, γ-GT, S-ASAT, S-ALAT, Amylase, S-Glukose ([7]; serum)
1 | O=C(O)c1cc(/N=N/c2ccc(S(=O)(=O)Nc3ccccn3)cc2)ccc1O [SAS, Sulfasalazine, reference compound] | blocking the cell membrane xCT antiport | 14% | 8% | 15% | 2.1% | 13.5% | 5.3% | 26.2% | 7.6% | – | – | – | – | – | –
2 | Nc1ccc(O)c(C(=O)O)c1 [mesalazine, 5-amino-2-hydroxybenzoic acid] | without xCT activity | – | – | – | – | – | – | – | – | – | – | – | – | – | –
3 | O=C(O)c1cc(/C=C/c2ccc(-c3ccccc3)cc2)ccc1O [DC10, (E)-5-(2-([1,1′-biphenyl]-4-yl)vinyl)-2-hydroxybenzoic acid] | – | 76.1% | 7.3% | 10.4% | 2.3% | 27.6% | 3.1% | 28% | 10.9% | significantly smaller | did not reveal any signs, symptoms or deficits | normal | did not show evidence of inflammation or other signs of tissue injury | appeared normal | no significant elevation in S-Kreatinin (Kidney function), or shift in γ-GT, S-ASAT, S-ALAT, Amylase and S-Glukose
4 | Nc1ccc(S(=O)(=O)Nc2ccccn2)cc1 [sulfapyridine, 4-amino-N-(pyridin-2-yl)benzenesulfonamide] | without xCT activity | – | – | – | – | – | – | – | – | – | – | – | – | – | –
